From DBAASP
Converted amounts (≈) assume the structure as drawn. Blank lines part the entries; values can stand above or below the molecule they belong to.

Legend:
Assay in all cases: ≥ marks a high value that may be exact or a test limit, other limits are often not marked, values filed in µg/mL are converted to µM
[1] = system: Yersinia pseudotuberculosis YPIII
Staphylococcus capitis 1 = system: Staphylococcus capitis 1
Bacillus megaterium Bm11 = system: Bacillus megaterium Bm11
[2] = system: Escherichia coli ATCC 25922
[3] = system: Staphylococcus aureus Cowan 1
[4] = system: Candida albicans ATCC 10231
[5] = system: Escherichia coli NCIMB 11843
[6] = system: Staphylococcus aureus RN4220
[7] = system: Cronobacter sakazakii DSM 4485
[8] = system: Cronobacter sakazakii ATCC BAA-894
[9] = system: Cronobacter sakazakii DPC 6440
[10] = system: Staphylococcus aureus NCTC 8325-4
[11] = system: Pseudomonas fluorescens NCIMB 9046
[12] = system: Staphylococcus aureus SA113
[13] = system: Klebsiella pneumoniae NCIMB 13218
[14] = system: Salmonella enterica subsp. enterica serovar Typhimurium LT2
[15] = system: Cronobacter muytjensii ATCC 51329
[16] = system: Staphylococcus aureus RF122
[17] = system: Staphylococcus aureus Newman
[18] = system: Pseudomonas aeruginosa PAO1
[19] = system: Pseudomonas aeruginosa 253
[20] = system: Pseudomonas aeruginosa 919
[21] = system: Pseudomonas aeruginosa 910
[22] = system: Escherichia coli DH5alpha
Staphylococcus xylosus = system: Staphylococcus xylosus
[23] = system: Trichosporon beigelii KCTC 7707
[24] = system: Salmonella typhimurium KCTC 1926
[25] = system: Candida albicans TIMM 1768
[26] = system: Staphylococcus aureus KCTC 1621
[27] = system: Escherichia coli KCTC 1682
[28] = system: Pseudomonas aeruginosa KCTC 1637
[29] = system: Bacillus subtilis KCTC 1918
[30] = system: Candida albicans ATCC 37092
[31] = system: Staphylococcus aureus ATCC 29213
[32] = system: Pseudomonas aeruginosa ATCC 27853
[33] = system: Corynebacterium glutamicum ATCC 13032
[34] = system: Staphylococcus aureus ATCC 9144
Escherichia coli HB101 = system: Escherichia coli HB101

MIC [1]: 20 µM (≈ 28.2 µg/mL)
MIC (Staphylococcus capitis 1): 5 µM (≈ 7.05 µg/mL)
MIC (Bacillus megaterium Bm11): 2.5 µM (≈ 3.53 µg/mL)
MIC [2]: > 40 µM
MIC [3]: 2.5 µM (≈ 3.53 µg/mL)
MIC [4]: 2.5 µM (≈ 3.53 µg/mL)
SMILES: CC[C@H](C)[C@H](NC(=O)CNC(=O)[C@H](CO)NC(=O)[C@H](CC(C)C)NC(=O)[C@@H](NC(=O)[C@H](CCCN=C(N)N)NC(=O)[C@H](C)NC(=O)[C@@H](NC(=O)[C@H](CC(C)C)NC(=O)[C@@H]1CCCN1C(=O)[C@H](CC(C)C)NC(=O)[C@@H](N)Cc1ccccc1)[C@@H](C)CC)C(C)C)C(=O)N[C@@H](CC(C)C)C(N)=O [FLPLIARVLSGIL]

MIC [5]: ≥ 2500 µM
MIC [6]: ≥ 625 µM
MIC [7]: ≥ 2500 µM
MIC [8]: ≥ 1250 µM
MIC [9]: ≥ 625 µM
MIC [10]: ≥ 2500 µM
MIC [11]: ≥ 2500 µM
MIC [12]: ≥ 2500 µM
MIC [13]: ≥ 2500 µM
MIC [14]: ≥ 2500 µM
MIC [15]: ≥ 2500 µM
MIC [16]: ≥ 625 µM
MIC [17]: ≥ 2500 µM
SMILES: CC[C@H](C)[C@H](N)C(=O)N[C@@H](CCCCN)C(=O)N[C@@H](Cc1cnc[nH]1)C(=O)N[C@@H](CCC(N)=O)C(=O)NCC(=O)N[C@@H](CC(C)C)C(=O)N1CCC[C@H]1C(=O)N[C@@H](CCC(N)=O)C(=O)N[C@@H](C)C(=O)O [IKHQGLPQA]

MIC [5]: ≥ 2500 µM
MIC [6]: ≥ 2500 µM
MIC [7]: ≥ 2500 µM
MIC [8]: ≥ 2500 µM
MIC [9]: ≥ 2500 µM
MIC [10]: ≥ 2500 µM
MIC [11]: ≥ 2500 µM
MIC [12]: ≥ 2500 µM
MIC [13]: ≥ 2500 µM
MIC [14]: ≥ 2500 µM
MIC [15]: ≥ 2500 µM
MIC [16]: ≥ 2500 µM
MIC [17]: ≥ 2500 µM
SMILES: CC[C@H](C)[C@H](N)C(=O)N[C@@H](CCCCN)C(=O)N[C@@H](Cc1cnc[nH]1)C(=O)N[C@@H](CCC(N)=O)C(=O)NCC(=O)N[C@@H](CCCN=C(N)N)C(=O)N1CCC[C@H]1C(=O)N[C@@H](CCC(N)=O)C(=O)N[C@@H](CCC(=O)O)C(=O)O [IKHQGRPQE]

MIC [18]: 2 µM (≈ 3.79 µg/mL)
MIC [19]: 16 µM (≈ 30.3 µg/mL)
MIC [20]: 16 µM (≈ 30.3 µg/mL)
MIC [21]: 4 µM (≈ 7.59 µg/mL)
SMILES: CC[C@H](C)[C@H](N)C(=O)N[C@@H](CC(C)C)C(=O)N[C@@H](CCCCN)C(=O)N[C@@H](Cc1c[nH]c2ccccc12)C(=O)N[C@@H](CCCCN)C(=O)N[C@@H](CCSC)C(=O)N[C@@H](Cc1ccccc1)C(=O)N[C@@H](CCCCN)C(=O)N[C@@H](Cc1c[nH]c2ccccc12)C(=O)N[C@@H](CCCCN)C(=O)N[C@@H](Cc1c[nH]c2ccccc12)C(=O)N[C@@H](Cc1ccccc1)C(=O)N[C@@H](CCCN=C(N)N)C(N)=O [ILKWKMFKWKWFR]

MIC [22]: ≥ 64 µM
MIC (Staphylococcus xylosus): 16 µM (≈ 13.5 µg/mL)
SMILES: NCCCC[C@H](NC(=O)[C@H](CCCN=C(N)N)NC(=O)[C@H](CCCCN)NC(=O)[C@H](CCCCN)NC(=O)[C@H](CCCN=C(N)N)NC(=O)[C@@H](N)CCCCN)C(=O)O [KRKKRK]

MIC [23]: 1.56 µM (≈ 2.75 µg/mL)
MIC [24]: 1.56 µM (≈ 2.75 µg/mL)
MIC [25]: 12.5 µM (≈ 22 µg/mL)
MIC [26]: 6.25 µM (≈ 11 µg/mL)
MIC [27]: 6.25 µM (≈ 11 µg/mL)
MIC [28]: 3.12 µM (≈ 5.5 µg/mL)
MIC [29]: 3.12 µM (≈ 5.5 µg/mL)
SMILES: CC(C)C[C@H](NC(=O)[C@H](CCCCN)NC(=O)[C@H](CCCCN)NC(=O)[C@H](CC(C)C)NC(=O)[C@H](CC(C)C)NC(=O)[C@H](CCCCN)NC(=O)[C@H](CCCCN)NC(=O)[C@H](CC(C)C)NC(=O)[C@H](CC(C)C)NC(=O)[C@@H]1CCCN1C(=O)[C@H](CCCCN)NC(=O)[C@H](CCCCN)NC(=O)[C@H](Cc1c[nH]c2ccccc12)NC(=O)[C@@H](N)CCCCN)C(N)=O [KWKKPLLKKLLKKL]

MIC [30]: 17.6 µM (≈ 41.5 µg/mL)
MIC [2]: 18.1 µM (≈ 42.7 µg/mL)
MIC [31]: > 500 µM
SMILES: CC(C)C[C@H](NC(=O)[C@H](CCCN=C(N)N)NC(=O)[C@@H]1CCCN1C(=O)[C@@H]1CCCN1C(=O)[C@H](CCCN=C(N)N)NC(=O)[C@@H]1CCCN1)C(=O)N1CCC[C@H]1C(=O)N[C@@H](CCCN=C(N)N)C(=O)N1CCC[C@H]1C(=O)N[C@@H](CCCN=C(N)N)C(=O)N1CCC[C@H]1C(=O)N[C@@H](CCCN=C(N)N)C(=O)N1CCC[C@H]1C(=O)N[C@@H](CC(C)C)C(=O)N1CCC[C@H]1C(=O)N[C@@H](Cc1ccccc1)C(=O)N1CCC[C@H]1C(=O)N[C@@H](CCCN=C(N)N)C(=O)N1CCC[C@H]1C(=O)NCC(=O)O [PRPPRLPRPRPRPLPFPRPG]

MIC [22]: 16 µM (≈ 20.5 µg/mL)
MIC (Staphylococcus xylosus): 4 µM (≈ 5.12 µg/mL)
SMILES: CC[C@H](C)[C@H](NC(=O)[C@H](CC(C)C)NC(=O)[C@@H](NC(=O)[C@H](CC(C)C)NC(=O)[C@@H](NC(=O)[C@H](CCCCN)NC(=O)[C@@H](N)CCCN=C(N)N)[C@@H](C)CC)[C@@H](C)CC)C(=O)N[C@@H](CCCCN)C(=O)N[C@@H](CCCN=C(N)N)C(=O)N[C@@H](CCCCN)C(=O)O [RKILILIKRK]

MIC [18]: 4 µM (≈ 5.19 µg/mL)
MIC [19]: 8 µM (≈ 10.4 µg/mL)
MIC [20]: 4 µM (≈ 5.19 µg/mL)
MIC [21]: 4 µM (≈ 5.19 µg/mL)
SMILES: CC[C@H](C)[C@H](NC(=O)[C@@H](NC(=O)[C@H](CCCN=C(N)N)NC(=O)[C@H](Cc1c[nH]c2ccccc12)NC(=O)[C@H](CCCN=C(N)N)NC(=O)[C@@H](N)CCCN=C(N)N)C(C)C)C(=O)N[C@H](C(=O)N[C@@H](CCCCN)C(=O)N[C@@H](Cc1c[nH]c2ccccc12)C(N)=O)C(C)C [RRWRVIVKW]

MIC [2]: > 100 µM
MIC [32]: > 100 µM
MIC [33]: 17.7 µM (≈ 41.2 µg/mL)
MIC [34]: ≥ 100 µM
MIC (Escherichia coli HB101): ≥ 35.4 µM
SMILES: CC[C@H](C)[C@H](NC(=O)[C@@H]1CCCN1C(=O)[C@H](CCCCN)NC(=O)[C@@H]1CCCN1C(=O)[C@H](CCCN=C(N)N)NC(=O)CNC(=O)[C@@H]1CCCN1C(=O)[C@H](Cc1ccccc1)NC(=O)[C@@H]1CCCN1C(=O)[C@H](CCCN=C(N)N)NC(=O)[C@@H]1CCCN1C(=O)[C@H](CCCN=C(N)N)NC(=O)CNC(=O)[C@@H]1CCCN1C(=O)[C@H](CO)NC(=O)[C@@H]1CCCN1C(=O)[C@H](Cc1c[nH]c2ccccc12)NC(=O)[C@H](CCCN=C(N)N)NC(=O)[C@@H](N)CO)C(=O)N[C@@H](Cc1ccccc1)C(=O)O [SRWPSPGRPRPFPGRPKPIF]

MIC [5]: ≥ 2500 µM
MIC [6]: ≥ 1250 µM
MIC [7]: ≥ 2500 µM
MIC [8]: ≥ 1250 µM
MIC [9]: ≥ 625 µM
MIC [10]: ≥ 312 µM
MIC [11]: ≥ 2500 µM
MIC [32]: 64 µM (≈ 53.8 µg/mL)
MIC [12]: ≥ 312 µM
MIC [13]: ≥ 1250 µM
MIC [14]: ≥ 1250 µM
MIC [15]: ≥ 1250 µM
MIC [16]: ≥ 1250 µM
MIC [17]: ≥ 1250 µM
SMILES: CC(C)C[C@H](NC(=O)[C@H](CC(C)C)NC(=O)[C@H](CC(N)=O)NC(=O)[C@H](CC(N)=O)NC(=O)[C@H](CC(C)C)NC(=O)[C@@H](N)C(C)C)C(=O)N[C@@H](CCCN=C(N)N)C(=O)O [VLNNLLR]
